Here are results for 1 molecule from patent US20240197712A1, “TGF-BETA INHIBITION FOR IMMUNODEFICIENCY VIRUS REACTIVATION FROM LATENCY, ENHANCEMENT OF IMMUNODEFICIENCY VIRUS-SPECIFIC RESPONSES AND IMMUNODEFICIENCY VIRUS CURE” (Northwestern University, priority 2022, published 2024).

Format in all cases: in vivo, rhesus macaques
The test system of one assay is SIV-env. Nature of the assay: ImmunoPET/CT with 64Cu-DOTA-F(ab')2 p7D3 anti SIV-env probe, 1-2 weeks galunisertib. How it is done:
PET/CT imaging with a 64Cu-DOTA-F(ab′)2 p7D3 anti SIV-env probe were performed before Galunisertib treatment, after 7 days in all macaques and after 14 days in the macaques that were treated for 14 days. Briefly, a solution of 64Cu was incubated with DOTA-F(ab′)2 p7D3 antibody reconstituted with 50 μL of IM NH40Ac, pH of 5.5 and incubated for 1 hour at 37° C.; then purified by ultrafiltration in a desalting spin column (10K MWCO, Thermo Fisher) and finally eluted with sterile saline prior to injection. The labeled probe was injected IV via catheters, 24 h before PET-CT scanning. For taking PET/CT scans, the macaques were sedated with ketamine HCL (10 mg/kg), and/or telazol (4-8 mg/kg) via intramuscular and supplemented with ketamine (5 mg/Kg) as needed to perform the procedure. The macaque's body was immobilized in dorsal recumbency on the scanner table and PET/CT scans were acquired using a Philips Gemini TF64 PET/CT scanner. […]
PET Image analysis was performed using the MIM software. PETCT fusions were generated scaled according to calculated Standardized Uptake Values. […]
Regions of interest (ROI) were isolated using a combination of the Region Grow function and manual contouring on a representative scan. […] The signals of the whole body as well as within these ROI were quantified, and Max, Mean, and Total SUVs were calculated for further analyses. […]

The next assay has as its system SIVmac239M2. As to the kind of experiment: SIV-IPDA intact and total provirus in PBMC. On the procedure:
To determine the impact of galunsiertib on SIV reservoir, CA-vDNA was measured in PBMC, colorectal biopsies and lymph nodes (LN). […] In the gut and LN (right axillary), decreases range from a Log to ⅓ of a Log (gut: median 0.77; range:0.33-0.94 folds LN: median: 0.93; range:0.33-0.98 folds decrease). In the PBMC the decrease was slightly less pronounced with a median half Log decrease ([…] median: 0.58; range 0.28-0.88 folds decrease). However, the comparison for the PBMCs was between week ˜35 and week ˜45 (end of cycle 3, AC3) instead of the end of all 4 cycles, because a snap frozen pellet was not available at the end of cycle 4 for PBMCs. The SIV reservoir in PBMCs was also monitored by SIV-IPDA comparing before cycle 1 (BC1) to the end of cycle 4 (AC4). […] Intact provirus declined similarly to the CA-vDNA with a median of half Log (median: 0.53; range:0-0.71 folds decrease).
Blood was collected in EDTA tubes and plasma was separated by density gradient centrifugation and used for the determination of plasma VL by SIVgag qRT-PCR at NIRC or at Leidos (Quantitative Molecular Diagnostics Core, AIDS and Cancer Virus Program Frederick National Laboratory). Tissue VL from snap frozen PBMC pellets, colorectal biopsies and LN FNA were performed as described in (77). SIV-TILDA was performed on freshly stored PBMC before cycle 1 and at the end of cycle 4 of galunisertib by Accelevir, Baltimore, MD.

A further assay deals with Tregs and Tfh cells. Nature of the assay: Circulating Treg and Tfh frequencies by flow cytometry. How it is done:
Peripheral blood mononuclear cells (PBMCs) collected from 8 macaques at 7 time points spanning Cycle 1 to Cycle 4 (refer to Table 5) were employed for high-parameter flow cytometry staining. Cells from before and after cycle 1 and at the end of cycle 3 were used for Tfh/Treg assay. In both cases, cell fixation and permeabilization for intracellular staining were carried out using the FoxP3 Staining Buffer set (Thermo Fisher Scientific, Carlsbad, CA). The high-dimensional panel consisted of antibodies outlined in Table 4, catering to requirements for surface and intracellular staining, as well as viability assessment. Each antibody was individually titrated to ensure optimal staining conditions. Data acquisition was performed using the FACSymphony A5.2 Spectral Analyzer. Following data collection, spectral compensation was implemented utilizing FlowJo™ v10.8 Software (BD Life Sciences). 60,000 live singlet lymphocytes from each of samples was downsampled to prevent disproportionate representation by samples with higher cell counts, ensuring balanced subsequent analysis. To mitigate batch effects, we utilized the swiftReg Neighbor-Dependent Cluster Registration (NDCR) method available within the SWIFT package(112). This method effectively addresses batch variations while preserving the inherent biological diversity. […] Furthermore, we implemented the Peak Extraction and Cleaning Oriented Quality Control (PeacoQC) procedure (138) in FlowJo™ v10.8 to eliminate low-quality events arising from potential issues like clogs, speed fluctuations, and slow sample uptake. FlowSOM FlowJo plugin was employed for automated cell population identification, preceded by the utilization of Phenograph to obtain optimal cluster numbers for dimensional reduction, for the merged data of All Time points and BC1 vs AC4 merged data respectively. The Supplementary FIG. 29A heatmap illustrates the median fluorescence intensity (MFI) values for all markers across all clusters. […]
For orientation: In flow cytometry, cells or beads pass a laser one at a time.

`Cc1cccc(-c2nn3c(c2-c2ccnc4ccc(C(N)=O)cc24)CCC3)n1` [galunisertib, Galunisertib]: in the assay on SIV-env (day 7 or 14 of treatment vs baseline), the “macaques with clear extensive viral reactivation in the gut (PET signal)” value was 3 of the 7. In addition, the “macaques with increased SUVtot in PET/CT images in gut and lymph nodes” value in the assay on SIV-env (oral galunisertib, aviremic long-term ART-treated macaques) is 5 out of 7. Moreover, the “decrease of intact pro-virus in PBMC” value in the assay on SIVmac239M2 (BC1 (week 35 pi) to AC4 (week 49 pi), median) came out at 3 fold. In the assay on SIVmac239M2 (PBMC, BC1 vs AC4), the “intact provirus decline by SIV-IPDA, median” value turned out to be 0.53 folds; the “intact provirus decline by SIV-IPDA, range” value is 0-0.71 folds; the “total and intact provirus by SIV-IPDA” value is reported as “significant decreases”. The “circulating Tfh (CXCR5+PD1+) within total and central memory CD4+ T cells” value in the assay on Tregs and Tfh cells (end of treatment) is recorded as “lower”. For the same molecule, in the assay with Tregs and Tfh cells (remained higher until end of 3rd cycle), the “frequency of CD4+ Tregs (CD25high FoxP3+) and CD8+ Tregs” value is reported as “increased after the first cycle”. The “expression of CD39 on total and central memory CD4+ T cells” value with Tregs and Tfh cells (rhesus monkey, in vivo) is “lower”.
